Source: US4933336A, “Thiadiazinone, oxadiazinone and triazinone derivatives, and their use for treating acute or chronic heart disease” (Laboratoires Sobio S.A., priority 1987, dated 1990)
Read-outs that look alike come from different tables or passages of the source. Each block holds one compound with its values, some of them ahead of it.

Assays:
[1] = test system: conscious instrumented Dog; assay: Cardiotonic activity in the conscious instrumented Dog; format: in vivo, dog (male Beagle); settings: Canis lupus familiaris, po; for change in vivo at 0.3 mg/kg: 0.30 mg/kg p.o.; for change in vivo at 0.03 mg/kg: 0.03 mg/kg p.o.; for change in vivo at 0.01 mg/kg: 0.01 mg/kg p.o.; for change in vivo at 10 mg/kg: 10.00 mg/kg p.o.; for change in vivo at 3 mg/kg: 3.00 mg/kg p.o.
Experimental: Cardiotonic activity in the conscious instrumented Dog
Male Beagle dogs, at least 2 years old, weighing 12 to 18 kg were anaesthetised with pentobarbital sodium (30 mg/kg i.v.). Respiration was maintained by a Harward pump, model 613a. The heart was exposed through a left thoracotomy and a pericardial cardle was formed. A high fidelity micromanometer (Koenigsberg P5 -P7) was inserted into left venitricular lumen through a stab incision at the apex. Wires were exteriorised to the back of the animals, placed into a size adapted jacket, and the chest closed. The experiments were conducted on the conscious dogs, 1 or 2 weeks after the surgery, when the animals had completely recovered.
Measured parameters were : first derivative of left ventricular pressure, (dP/dt, mmHg/sec); heart rate (HR, beats/min.). A control period recording of 90 min. was made with the dogs placed in a quiet room, the recordings being made outside. Compounds to be tested were administered orally in gelatin capsules and the parameters measured for 5 hrs. at least.
Results were expressed as the percentage of the maximum±SEM.

[2] = test system: Canine cardiac myofibrillar Ca++-dependent Mg++ ATPase; assay: Measurement of myofibrillar Ca++-dependent Mg++ATPase activity (Ca++ sensitivity and maximal activity); format: biochemical, canine (dog); settings: pH 7.0, 21° C.
Experimental: 1. Measurement of myofibrillar Ca++-dependent Mg++ATPase activity
the effect on myofibrillar Ca++sensitivity and on maximal activity of myofibrillar Ca++-dependent Mg++-ATPase was determined on canine cardiac myofibrils.
(a) Contractile protein preparation
Cardiac myofibrils free of membrane contaminants were prepared from left ventricular tissue of dog hearts using a modification of the method described by SOLARO et al, Biochem. Biophys. Acta, 245, 259-262, (1971). Before centrifugration, the heart homogenate was filtered through gauze.
After Triton X-100 treatments, the myofibrillar fraction was washed once by resuspension and centrifugation in 10 volumes of 1 mM EGTA, […], 30 mM imidazole, 2 mM MgCl2, pH 7.0. The pellet was then washed three times in 10 volumes of the same buffer without EGTA. Before the last centrifugation, the suspension of myofibrils was filtered through a stainless steel sieve with 0.25 mm meshes.
Myofibrils were kept in pellet overnight. Before use, the pellet was suspended in a small amount of buffer, the protein concentration was determined by the method of BRADFORD M., Anal. Biochem., 1976, 72, 248 and adjusted in order to have a concentration between 6 and 7 mg/ml.
(b) Myofibrillar ATPase activity
Ca++-dependent myfibrillar ATPase activity was determined at 21° C., pH 7.0, by measuring the rate of release of inorganic phosphate. All assays were performed within 24 hrs. of final purification, using the method described by SOLARO and RUEGG, CIRC. RES., 51, 290-4, (1982). Reaction mixtures (4 ml) containing 0.6-0.7 mg/ml myofibrillar protein, 80 mM KCl, 20 mM imidazole, 3 mM […], 1 mM EGTA, the desired amount of CaCl2, and the indicated concentration of drug or appropriate vehicle were preincubated for 6 min. prior to assay. The amount of CaCl2 was varied between 0 and 0.9 mM and the pCA (-log free Ca++) computed using 2.514×10^6 M^-1 as the apparent affinity of Ca++for EGTA at pH 7.0.
Reactions were initiated by the addition of Na2 ATP to final concentration of 2 mM. After an incubation period of 12 min., reactions were quenched by the addition of an equal volume of ice-cold 10% trichloroacetic acid. The protein was pelleted by centrifugation (2000 g, 15 min.) and Pi was assayed in the supernatant fraction using a modification of the method described by LANZETTA et al, Anal. Biochem., 100, 95-97, (1979).
The following solutions were prepared:
(1) 3.7% ammonium heptamolybdate in 0.12N H2 SO4
(2) 0.074% malachite green oxalate in 1% polyvinylic alcohol.
the colour reagent was prepared by mixing an equal volume of solution (1) and (2) 15 min. before the assay. For the assay, 1700 μl of 1% H2 SO4 and 1 ml of colour reagent were added to 100 μl of sample. Colour development occurred at room temperature for 30 min. and was quenched by the addition of 200 μl of 1M tri-potassium citrate. The absorbance was measured at 620 millimicrons.
The effect of each compound, tested at the indicated concentration, on the relation between pCa and percent activation was determined taking 100% for the maximum ATPase activity obtained with vehicle alone. The effect on Ca++ sensitivity was quantified by measuring the shift of the pCa giving 50% of the maximal control ATPase activity.
The effect on maximal ATPase activity was expressed as the percent change of ATPase activity for pCa=5.47.

[3] = read-out: H.R. (heart rate), percentage of the maximum ± SEM
[4] = read-out: dP/dt Max (first derivative of left ventricular pressure), percentage of the maximum ± SEM

Structure (SMILES): CC1SC(=O)NN=C1c1ccc2c(c1)C1(CCCC1)C(=O)N2 (centres unmarked) [Example 6, 5'-(3,6-Dihydro-6-methyl-2-oxo-2H-1,3,4-thiadiazin-5-yl)-spiro[cyclopentane-1,3'-[3H]-indol]-2'(1'H)one]
change in vivo at 0.3 mg/kg [1, 3]: 7%
change in vivo at 0.3 mg/kg [1, 4]: 33%

Structure (SMILES): CSC1(C)C(=O)N(C(C)=O)c2ccc(C3=NNC(=O)SC3)cc21 (centres unmarked) [Example 9, 1-Acetyl-1,3-dihydro-5-(3,6-dihydro-2-oxo-2H-1,3,4-thiadiazin-5-yl)-3-methyl-3-methylthio-2H-indol-2-one]
change in vivo at 10 mg/kg [1, 3]: 16%
change in vivo at 10 mg/kg [1, 4]: 68%

Structure (SMILES): CC1SC(=O)NN=C1c1ccc2c(c1)C(=O)C(=O)N2 (centres unmarked) [Example 12, 5-(3,6-Dihydro-6-methyl-2-oxo-2H-1,3,4-thiadiazin-5-yl)-1H-indole-2,3-dione]
change in vivo at 0.3 mg/kg [1, 3]: 10%
change in vivo at 0.3 mg/kg [1, 4]: 51%

Structure (SMILES): CC1SC(=O)NN=C1c1ccc2c(c1)C1(CC1)C(=O)N2 (centres unmarked) [Example 16, 5'-(3,6-Dihydro-6-methyl-2-oxo-2H-1,3,4 thiadiazin-5-yl) -spiro[cyclopropane-1,3'-[3H]indol]-2'-(1'H)-one]
change in vivo at 0.03 mg/kg [1, 3]: 21%
change in vivo at 0.03 mg/kg [1, 4]: 105%

Structure (SMILES): CC1SC(=O)NN=C1c1ccc2c(c1)C(C)(C)C(=O)N2C(=O)c1ccccc1 (centres unmarked) [Example 22, 1-Benzoyl-1,3-dihydro-5-(3,6-dihydro-6-methyl-2-oxo-2H-1,3,4-thiadiazin-5-yl)-3,3-dimethyl-2H-indol-2-one]
change in vivo at 0.03 mg/kg [1, 3]: 14%
change in vivo at 0.03 mg/kg [1, 4]: 56%

Structure (SMILES): CC1NC(=O)NN=C1c1ccc2c(c1)C(C)(C)C(=O)N2 (centres unmarked) [Example 37, 1,3-Dihydro-5-(1,2,3,6-tetrahydro-6-methyl-2-oxo-1,3,4-triazin-5-yl)-3,3-dimethyl-2H-indol-2-one]
change in vivo at 0.03 mg/kg [1, 3]: 24%
change in vivo at 0.03 mg/kg [1, 4]: 85%

Structure (SMILES): CC1SC(=O)NN=C1c1ccc2c(c1)C(C)(C)C(=O)N2C(=O)Oc1ccccc1 (centres unmarked) [Example 40, Phenyl 2,3-dihydro-5-(3,6-dihydro-6-methyl-2-oxo-2H-1,3,4-thiadiazin-5-yl)-3,3-dimethyl-2-oxo-1H-indole-1-carboxylate]
Max ATPase activity (%) (percent change of ATPase activity for pCa=5.47) ([2]; 3 × 10^-5 molar): +2 ± 2%
Ca2+ sensitivity p CA50 (shift of the pCa giving 50% of the maximal control ATPase activity) ([2]; 3 × 10^-5 molar): 0.15 ± 0.01

Structure (SMILES): CC1SC(=O)NN=C1c1ccc2c(c1)C(C)(C)C(=O)N2C(=O)c1ccc(N)cc1 (centres unmarked) [Example 42, 1,3-Dihydro-5-(3,6-dihydro-6-methyl-2-oxo-2H-1,3,4-thiadiazin-5-yl)-3,3-dimethyl-1-[(4-aminophenyl)carbonyl]-2H-indol-2-one]
Max ATPase activity (%) (percent change of ATPase activity for pCa=5.47) ([2]; 3 × 10^-5 molar): -9 ± 2%
Ca2+ sensitivity p CA50 (shift of the pCa giving 50% of the maximal control ATPase activity) ([2]; 3 × 10^-5 molar): 0.17 ± 0.03

Continued, in another order:

Max ATPase activity (%) (percent change of ATPase activity for pCa=5.47) ([2]; 20 × 10^-5 molar): -3 ± 2%
Ca2+ sensitivity p CA50 (shift of the pCa giving 50% of the maximal control ATPase activity) ([2]; 20 × 10^-5 molar): 0.38 ± 0.03
Structure (SMILES): CSC1(C)C(=O)Nc2ccc(C3=NNC(=O)SC3)cc21 (centres unmarked) [Example 1, 1,3-Dihydro-5-(3,6-dihydro-2-oxo-2H-1,3,4-thiadiazin-5-yl)-3-methyl-3-methylthio-2H-indol-2-one]
change in vivo at 0.3 mg/kg [1, 3]: 17%
change in vivo at 0.3 mg/kg [1, 4]: 53%

Max ATPase activity (%) (percent change of ATPase activity for pCa=5.47) ([2]; 20 × 10^-5 molar): -9 ± 2%
Ca2+ sensitivity p CA50 (shift of the pCa giving 50% of the maximal control ATPase activity) ([2]; 20 × 10^-5 molar): 0.16 ± 0.07
Structure (SMILES): CC1(C)C(=O)Nc2ccc(C3=NNC(=O)SC3)cc21 [Example 2, 1,3-Dihydro-5-(3,6-dihydro-2-oxo-2H-1,3,4-thiadiazin-5-yl)-3,3,-dimethyl-2H-indol-2-one]

Max ATPase activity (%) (percent change of ATPase activity for pCa=5.47) ([2]; 20 × 10^-5 molar): -12 ± 2%
Ca2+ sensitivity p CA50 (shift of the pCa giving 50% of the maximal control ATPase activity) ([2]; 20 × 10^-5 molar): 0.32 ± 0.06
Structure (SMILES): CC1SC(=O)NN=C1c1ccc2c(c1)C(C)(C)C(=O)N2 (centres unmarked) [Example 3]
change in vivo at 0.03 mg/kg [1, 3]: 8%
change in vivo at 0.03 mg/kg [1, 4]: 71%

Max ATPase activity (%) (percent change of ATPase activity for pCa=5.47) ([2]; 20 × 10^-5 molar): -6 ± 2%
Ca2+ sensitivity p CA50 (shift of the pCa giving 50% of the maximal control ATPase activity) ([2]; 20 × 10^-5 molar): 0.15 ± 0.03
Structure (SMILES): CC1C(=O)Nc2ccc(C3=NNC(=O)SC3)cc21 (centres unmarked) [Example 4, 1,3-Dihydro-5-(3,6-dihydro-2-oxo-2H-1,3,4-thiadiazin-5-yl)-3-methyl-2H-indol-2-one]

Max ATPase activity (%) (percent change of ATPase activity for pCa=5.47) ([2]; 20 × 10^-5 molar): -8 ± 1%
Ca2+ sensitivity p CA50 (shift of the pCa giving 50% of the maximal control ATPase activity) ([2]; 20 × 10^-5 molar): 0.40 ± 0.08
Structure (SMILES): CSC1(C)C(=O)Nc2ccc(C3=NNC(=O)SC3C)cc21 (centres unmarked) [Example 5, 1,3-Dihydro-5-(3,6-dihydro-6-methyl-2-oxo-2H-1,3,4-thiadiazin-5-yl)-3-methyl-3-methylthio-2H-indol-2-one]
change in vivo at 0.03 mg/kg [1, 3]: 16%
change in vivo at 0.03 mg/kg [1, 4]: 45%

Max ATPase activity (%) (percent change of ATPase activity for pCa=5.47) ([2]; 20 × 10^-5 molar): -2 ± 3%
Ca2+ sensitivity p CA50 (shift of the pCa giving 50% of the maximal control ATPase activity) ([2]; 20 × 10^-5 molar): 0.37 ± 0.06
Structure (SMILES): CC(=O)N1C(=O)C(C)(C)c2cc(C3=NNC(=O)SC3C)ccc21 (centres unmarked) [Example 7, 1-Acetyl-1,3-dihydro-5-(3,6-dihydro-6-methyl-2-oxo-H-1,3,4-thiadiazin-5-yl)3,3-dimethyl-2H-indol-2-one]
change in vivo at 0.01 mg/kg [1, 3]: 9%
change in vivo at 0.01 mg/kg [1, 4]: 41%

Max ATPase activity (%) (percent change of ATPase activity for pCa=5.47) ([2]; 3 × 10^-5 molar): -9 ± 5%
Ca2+ sensitivity p CA50 (shift of the pCa giving 50% of the maximal control ATPase activity) ([2]; 3 × 10^-5 molar): 0.36 ± 0.02
Structure (SMILES): CSC1C(=O)Nc2ccc(C3=NNC(=O)SC3C)cc21 (centres unmarked) [Example 10, 1,3-Dihydro-5-(3,6-dihydro-6-methyl-2-oxo-2H-1,3,4-thiadiazin-5-yl)-3-methylthio-2H-indol-2-one]

Max ATPase activity (%) (percent change of ATPase activity for pCa=5.47) ([2]; 20 × 10^-5 molar): +1 ± 0%
Ca2+ sensitivity p CA50 (shift of the pCa giving 50% of the maximal control ATPase activity) ([2]; 20 × 10^-5 molar): 0.36 ± 0.05
Structure (SMILES): CSC1C(=O)Nc2ccc(C3=NNC(=O)SC3)cc21 (centres unmarked) [Example 11, 1,3-Dihydro-5-(3,6-dihydro-2-oxo-2H-1,3,4-thiadiazin-5-yl) -3-methylthio-2H-indol-2-one]
change in vivo at 3 mg/kg [1, 3]: 7%
change in vivo at 3 mg/kg [1, 4]: 51%

Max ATPase activity (%) (percent change of ATPase activity for pCa=5.47) ([2]; 3 × 10^-5 molar): -4 ± 1%
Ca2+ sensitivity p CA50 (shift of the pCa giving 50% of the maximal control ATPase activity) ([2]; 3 × 10^-5 molar): 0.37 ± 0.11
Structure (SMILES): CSC1(SC)C(=O)Nc2ccc(C3=NNC(=O)SC3C)cc21 (centres unmarked) [Example 15, 1,3-Dihydro-5-(3,6-dihydro-6-methyl-2-oxo-2H-1,3,4-thiadiazin-5-yl)-3.3-di(methylthio)-2H-indol-2 one]
